Laboratory results reported in patent publication US20250195521A1 (Revolution Medicines, Inc., priority 2020, published 2025).
Read-outs that look alike come from different tables or passages of the source.

Legend:
[1] = system: Capan-1 cells (K-Ras G12V); test: CellTiter-Glo cell viability, Capan-1; type: cell-based, human; settings: K-Ras G12V, 5-day treatment, read-out: Capan-1 Cell Viability IC50
Summary of the method: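 Viability is read as luminescence after five days of compound exposure, with plates first equilibrated to room temperature for roughly 30 minutes. Each signal is expressed as a percentage of the mean DMSO control, and curves are fitted by four-parameter logistic regression.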

[2] = system: K-Ras G12C (NCI-H358 cells); test: Potency assay: pERK in NCI-H358 cells; type: cell-based, human; settings: NCI-H358 cells, 4 hours, read-out: pERK EC50 (H358 KRAS G12C)
Summary of the method: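 Cells plated the day before were exposed for 4 h at 37° C, 5% CO2 to a 10-point, 3-fold DMSO dilution series (10 mM top stock), in duplicate. Phospho-ERK was read by AlphaLISA SureFire Ultra or by In-Cell Western with DRAQ5 DNA stain, and IC50 came from a 4-parameter sigmoidal fit.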

[3] = system: NCI-H358 cells (K-Ras G12C); test: CellTiter-Glo cell viability, NCI-H358; type: cell-based, human; settings: K-Ras G12C, 5-day treatment, read-out: H358 Cell Viability IC50
Protocol: Note—The following protocol describes a procedure for monitoring cell viability of K-Ras mutant cancer cell lines in response to a compound of the invention. Other RAS isoforms may be employed, though the number of cells to be seeded will vary based on cell line used.
Test compounds (132.5 nl) were directly dispensed into the assay plates containing cells. […] On day 5, assay plates and their contents were equilibrated to room temperature for approximately 30 minutes. […] Luminescence was measured using the PerkinElmer Enspire. Data were normalized by the following: (Sample signal/Avg. DMSO)*100. The data were fit using a four-parameter logistic fit.

KRAS G12V = KRAS G12V (Homo sapiens (Human), UniProt P01116+P62937, G12V); test: Ras-Raf disruption/FRET/MOA assay (BRAF RBD, Cyclophilin A); type: biochemical; settings: read-out: KRAS G12V FRET IC50
Summary of the method: (§1)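 TR-FRET read after 1.5 h with 10 nM anti-His Eu-W1024 and 50 nM anti-GST APC, following 3 h at 25 °C of GMPPNP-loaded His6-Ras (12.5 nM), GST-BRAF RBD (50 nM) and Cyclophilin A (25 μM) with compound from 30 μM final, 10 points, 3-fold. IC50 reported; pH 7.3 HEPES, 100 mM NaCl.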

KRAS G12S = KRAS G12S (Homo sapiens (Human), UniProt P01116+P62937, G12S); test: as above; type: biochemical; settings: read-out: KRAS G12S FRET IC50
Summary of the method: as §1

KRAS G12C = KRAS G12C (Homo sapiens (Human), UniProt P01116+P62937, G12C); test: as above; type: biochemical; settings: read-out: KRAS G12C FRET IC50
Summary of the method: as §1

KRAS G13D = KRAS G13D (Homo sapiens (Human), UniProt P01116+P62937, G13D); test: as above; type: biochemical; settings: read-out: KRAS G13D FRET data IC50
Summary of the method: as §1

NRAS G12C = NRAS G12C (Homo sapiens (Human), UniProt P01111+P62937, G12C); test: as above; type: biochemical; settings: read-out: NRAS G12C FRET data IC50
Sequence of NRAS G12C (P01111 whole entry G12C): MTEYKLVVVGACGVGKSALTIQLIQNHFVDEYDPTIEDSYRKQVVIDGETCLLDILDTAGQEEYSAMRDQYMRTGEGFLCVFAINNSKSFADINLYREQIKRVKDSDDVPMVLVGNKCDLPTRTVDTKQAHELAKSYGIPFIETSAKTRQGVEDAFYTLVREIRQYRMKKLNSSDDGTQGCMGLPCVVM
Sequence of NRAS G12C (P62937 whole entry): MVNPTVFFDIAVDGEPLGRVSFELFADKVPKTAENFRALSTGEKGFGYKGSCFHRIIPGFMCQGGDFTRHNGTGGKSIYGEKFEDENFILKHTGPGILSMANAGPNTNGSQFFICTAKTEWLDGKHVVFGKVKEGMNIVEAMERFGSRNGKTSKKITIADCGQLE
Summary of the method: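 Ras-GMPPNP (12.5 nM), BRAF RBD (50 nM) and 25 μM Cyclophilin A were incubated with compound for 3 h at 25° C, then detected 1.5 h with anti-His Eu and anti-GST APC; IC50 values follow from the reduced TR-FRET ratio.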

KRAS WT = KRAS WT (Homo sapiens (Human), UniProt P01116+P62937); test: as above; type: biochemical; settings: read-out: KRAS WT FRET data IC50
Summary of the method: as §1

KRAS G13C = KRAS G13C (Homo sapiens (Human), UniProt P01116+P62937, G13C); test: as above; type: biochemical; settings: read-out: KRAS G13C FRET IC50
Summary of the method: as §1

KRAS G12D = KRAS G12D (Homo sapiens (Human), UniProt P01116+P62937, G12D); test: as above; type: biochemical; settings: read-out: KRAS G12D FRET IC50
Summary of the method: as §1

NCI-H358 (K-Ras G12C) = test: CellTiter-Glo cell viability assay, NCI-H358; type: cell-based, human; settings: 5-day treatment, read-out: H358 Cell Viability assay data (K-Ras G12C, IC50)
Summary of the method: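 Viability is measured as ATP-dependent luminescence (CellTiter-Glo) five days into compound treatment. Responses are normalized to vehicle (DMSO) wells and fitted by four-parameter logistic regression.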

Row | Compound | EC50 ([2]; Homo sapiens) [nM] | IC50 (KRAS G12V) [nM] | IC50 (KRAS G12S) [nM] | IC50 (KRAS G12C) [nM] | IC50 (KRAS G13C) [nM] | IC50 (KRAS G12D) [nM] | IC50 ([3]; Homo sapiens, NCI-H358, 120 h) [nM] | IC50 ([1]; Homo sapiens, CAPAN-1, 120 h) [nM] | also measured
1 | CCn1c(-c2cccnc2[C@H](C)OC)c2c3cc(ccc31)-c1cc(O)cc(c1)C[C@H](NC(=O)[C@H](C(C)C)N(C)C(=O)[C@H]1C[C@@H]1O)C(=O)N1CCC[C@H](N1)C(=O)OCC(C)(C)C2 (single isomer, unassigned) [Compound A346] | < 5000 |  |  |  |  |  |  |  | IC50 [1]: 100 to 1000 nM; IC50 [3]: 100 to 1000 nM
2 | CCn1c(-c2cnccc2COC)c2c3cc(ccc31)-c1cc(O)cc(c1)C[C@H](NC(=O)[C@H](C(C)C)N(C)C(=O)[C@H]1CCN(C(=O)C(C)(C)N)C1)C(=O)N1CCC[C@H](N1)C(=O)OCC(C)(C)C2 [Compound A15] |  | 100 to 1000 | 100 to 1000 | 10 to 100 | 100 to 1000 | 100 to 1000 | 1000 to 10000 |  | IC50 (KRAS G13D): 100 to 1000 nM; IC50 (NRAS G12C): 100 to 1000 nM; IC50 (KRAS WT): 100 to 1000 nM
3 | CCn1c(-c2cccnc2COC)c2c3cc(ccc31)-c1cc(O)cc(c1)C[C@H](NC(=O)[C@H](C(C)C)N(C)C(C)=O)C(=O)N1CCC[C@H](N1)C(=O)OCC(C)(C)C2 [Compound A55] | < 5000 | 1000 to 10000 | 1000 to 10000 | 1000 to 10000 | 100 to 1000 | > 10000 | 1000 to 10000 |  | IC50 (KRAS WT): 1000 to 10000 nM
4 | CCn1c(-c2cccnc2COC)c2c3cc(ccc31)-c1cc(O)cc(c1)C[C@H](NC(=O)[C@H](C(C)C)N(C)C(=O)c1ccc(NC(=O)/C=C/CN(C)C)cn1)C(=O)N1CCC[C@H](N1)C(=O)OCC(C)(C)C2 [Compound A67, (2E)-4-(dimethylamino)-N-(6-{[(1S)-1-{[(8S,14S)-22-ethyl-4-hydroxy-21-[2-(methoxymethyl)pyridin-3-yl]-18,18-dimethyl-9,15-dioxo-16-oxa-10,22,28-triazapentacyclo [18.5.2.1^2,6.1^10,14.0^23,27]nonacosa-1 (26),2,4,6 (29),20,23 (27),24-heptaen-8-yl]carbamoyl}-2-methylpropyl](methyl)carbamoyl}pyridin-3-yl) but-2-enamide] |  | 100 to 1000 | 100 to 1000 | 10 to 100 | 10 to 100 | 100 to 1000 |  |  | IC50 (NCI-H358 (K-Ras G12C)): 100 to 1000 nM; EC50 [2]: < 5000 nM; IC50 [3]: 1000 to 10000 nM
5 | CCn1c(-c2ccccc2CCOC)c2c3cc(ccc31)-c1cc(O)cc(c1)C[C@H](NC(=O)[C@H](C(C)C)N(C)C(=O)CNC(=N)N)C(=O)N1CCC[C@H](N1)C(=O)OCC(C)(C)C2 [Compound A69] | < 5000 | 1000 to 10000 | 100 to 1000 | 100 to 1000 | 100 to 1000 | 1000 to 10000 | > 10000 |  | IC50 (NCI-H358 (K-Ras G12C); Homo sapiens, NCI-H358, 120 h): 10 to 100 nM; IC50 (KRAS G13D): 1000 to 10000 nM; IC50 (KRAS WT): 1000 to 10000 nM
6 | CCn1c(-c2cccnc2[C@H](C)OC)c2c3cc(ccc31)-c1cc(O)cc(c1)C[C@H](NC(=O)[C@H](C(C)C)N(C)C(=O)C1(F)CC1)C(=O)N1CCC[C@H](N1)C(=O)OCC(C)(C)C2 [Compound A165] |  |  | 10 to 100 | 10 to 100 | 10 to 100 | 100 to 1000 | 10 to 100 |  | IC50 (KRAS G13D): 10 to 100 nM; IC50 (NRAS G12C): 10 to 100 nM; IC50 (KRAS WT): 10 to 100 nM
7 | CCn1c(-c2cccnc2[C@H](C)OC)c2c3cc(ccc31)-c1cc(O)cc(c1)C[C@H](NC(=O)[C@H](C(C)C)N(C)C(=O)[C@H]1C[C@@H]1C)C(=O)N1CCC[C@H](N1)C(=O)OCC(C)(C)C2 [Compound A287] |  |  |  |  |  |  | 100 to 1000 | 100 to 1000 | 
8 | CCn1c(-c2cccnc2[C@H](C)OC)c2c3cc(ccc31)-c1cc(O)cc(c1)C[C@H](NC(=O)[C@H](C(C)C)N(C)C(=O)[C@H]1C[C@@H]1O)C(=O)N1CCC[C@H](N1)C(=O)OCC(C)(C)C2 [Compound A323] |  | 10 to 100 | 10 to 100 | < 10 |  |  | 100 to 1000 | 100 to 1000 | IC50 (KRAS G13D): 10 to 100 nM; IC50 (NRAS G12C): < 10 nM
9 | CCn1c(-c2cccnc2[C@H](C)OC)c2c3cc(ccc31)-c1csc(n1)C[C@H](NC(=O)[C@H](C(C)C)N(C)C(=O)N1CC[C@@H](O)C1)C(=O)N1CCC[C@H](N1)C(=O)OCC(C)(C)C2 [Compound A376] | < 5000 |  |  |  |  |  | 10 to 100 | 10 to 100 | 
10 | CCn1c(-c2cccnc2[C@H](C)OC)c2c3cc(ccc31)-c1csc(n1)C[C@H](NC(=O)[C@H](C(C)C)N(C)C(=O)N1CC([C@@H](C)N(C)C)C1)C(=O)N1CCC[C@H](N1)C(=O)OCC(C)(C)C2 [Compound A458] | < 5000 |  |  |  |  |  | 10 to 100 | 10 to 100 | 
11 | CCn1c(-c2cccnc2[C@H](C)OC)c2c3cc(ccc31)-c1csc(n1)C[C@H](NC(=O)[C@H](C(C)C)N(C)C(=O)N1CCC[C@@H](N(C)C)C1)C(=O)N1CCC[C@H](N1)C(=O)OCC(C)(C)C2 [Compound A531] | < 5000 |  |  |  |  |  | 10 to 100 | 10 to 100 | 
12 | CCn1c(-c2cccnc2[C@H](C)OC)c2c3cc(ccc31)-c1csc(n1)C[C@H](NC(=O)[C@H](C(C)C)N(C)C(=O)N(C)[C@@H]1CCCN(C)C1)C(=O)N1CCC[C@H](N1)C(=O)OCC(C)(C)C2 [Compound A587] | < 5000 |  |  |  |  |  | 10 to 100 |  | 
13 | CCn1c(-c2cccnc2[C@H](C)OC)c2c3cc(ccc31)-c1csc(n1)C[C@H](NC(=O)[C@H](C(C)C)N(C)C(=O)N1CCN(C(=O)[C@H]3CCCN3C)CC1)C(=O)N1CCC[C@H](N1)C(=O)OCC(C)(C)C2 [Compound A595] | < 5000 |  |  |  |  |  | 10 to 100 | 100 to 1000 | 
14 | (2S)—N-[(8S,14S)-22-ethyl-4-hydroxy-21-[4-(methoxymethyl)pyridin-3-yl]-18,18-dimethyl-9,15-dioxo-16-oxa-10,22,28-triazapentacyclo [18.5.2.1^2,6.1^10,14.0^23,27]nonacosa-1 (26),2,4,6 (29),20,23 (27),24-heptaen-8-yl]-2-{1-[(3S)-1-{2-[(3R)-3-hydroxypyrrolidin-1-yl]acetyl}pyrrolidin-3-yl]-N-methylformamido}-3-methylbutanamide [Compound A6] |  | 100 to 1000 | 10 to 100 | 10 to 100 | 100 to 1000 | 100 to 1000 |  |  | IC50 (NCI-H358 (K-Ras G12C)): 100 to 1000 nM; EC50 [2]: < 5000 nM; IC50 [3]: 1000 to 10000 nM
